{
  "source": "ChEMBL document CHEMBL1152149",
  "about": "(Bioorg Med Chem Lett, 2008)",
  "note": "Counter-ions that a name gives are not always drawn.",
  "data": [
    {"test_system": "Influenza A virus", "assay": "microbe, parasite or virus in culture", "settings": "MDCK", "units": {"EC50": "nM"}, "values": [
      {"smiles": "CC1(N)C2CC3CC(C2)CC1C3", "note": "(stereo unspecified)", "EC50": "< 2000"},
      {"smiles": "CCCC1(N)C2CC3CC(C2)CC1C3", "note": "(stereo unspecified)", "EC50": "< 1700"},
      {"smiles": "C1CNC2(C1)C1CC3CC(C1)CC2C3", "note": "(stereo unspecified)", "EC50": 1800},
      {"smiles": "CC1(O)C2CC3CC(C2)CC1C3", "note": "(stereo unspecified)", "EC50": 10800},
      {"smiles": "CCC1(N)C2CC3CC(C2)CC1C3", "note": "(stereo unspecified)", "EC50": "< 1900"},
      {"smiles": "NC12CC3CC(CC(C3)C1)C2", "note": "[AMANTADINE HYDROCHLORIDE]", "EC50": "< 900"}
    ]}
  ]
}
